The subject of the series is A549 human lung cancer cells. Particulars: for decreased clonogenic survival at 18 MV compared to 6 MV: Example 2 conclusion; for more cell killing at 18 MV vs 6 MV: Example 3 conclusion; for cell survival decreased using 18 MV photons compared to 6 MV photons, average of 3 experiments: FIG. 2 and FIG. 4, 2 hours before irradiation with 2 Gy, 100 μM sodium phosphotungstate, 4 μg/ml cisplatin, 12 μg/ml carboplatin; for increased cell killing at 18 MV compared to 6 MV, on average: cisplatin 4 μg/ml, carboplatin 12 μg/ml (FIG. 4). The protocol:
Detailed Methods: The human lung cancer cell line A549 was maintained in tissue culture using standard techniques. A 70% confluent T25 tissue culture flask of A549 in exponential growth phase was trypsinized with 2 mL of 0.05% trypsin solution and deactivated with 3 mL DMEM to produce a 5 mL single cell-suspension. One milliliter of this cell solution was added to 10 mL of DMEM and vortexed to produce a homogenous diluted single cell suspension. Seven 6-well tissue culture plates were prepared with 3 mL of DMEM per well. […] These plates were incubated at 37° C. for 24 hours to allow the cells to settle and the tissue culture wells. The media was then removed from each plate and replaced with: DMEM in 3 plates as non-metal controls (250 cells per well), 100 μM sodium phosphotungstate hydrate DMEM in 2 plates (250 cells per well), 1 mM sodium tungstate dihydrate DMEM in 2 plates (250 cells per well), and 4 μg/mL cisplatin DMEM in 2 plates (1000 cells per well). The media with or without metal compounds was left in the wells to incubate for 1-2 hours prior to irradiation. Six plates were irradiated using a linear accelerator (Varian Trilogy; Varian Corp., Palo Alto, Calif.): one plate each of the DMEM, sodium phosphotungstate hydrate, sodium tungstate dihydrate, and cisplatin were given 209 MU of 6 MV X-rays (2 Gy) and the remaining plates of DMEM, sodium phosphotungstate hydrate, sodium tungstate dihydrate, and cisplatin were irradiated with 239 MU of 18 MV X-rays (2 Gy). The remaining seventh plate was not irradiated and used to calculate plating efficiency of A549. The seven plates then had all media replaced with normal DMEM immediately following irradiation and were incubated for 10 days. When A549 colonies were seen to be equal to or greater than 50 cells by microscopy, the seven plates were stained with crystal violet and counted. The same experiment above was conducted for A549 cells in DMEM media alone with administration of sodium phosphotungstate hydrate after irradiation. Two identical plates were prepared as described above and these were irradiated at 6 or 18 MV in DMEM. The media was removed after irradiation and replaced with 100 μM sodium phosphotungstate hydrate media for one hour before again being replaced with DMEM and incubated for 10 days.
A549 lung cancer cells were used to create nine 6-well plates under standard methods. The media was then removed from each plate and replaced with: DMEM in 3 plates as non-metal controls (250 cells per well), 100 μM sodium phosphotungstate hydrate DMEM in 2 plates (250 cells per well), 12 μg/ml carboplatin DMEM in 2 plates (1000 cells per well), and 4 μg/ml cisplatin DMEM in 2 plates (1000 cells per well) and incubated for 2-4 hours prior to irradiation. Eight plates were irradiated on a linear accelerator: one plate each of the DMEM, tungsten, carboplatin, and cisplatin was given 2 Gy of 6 MV X-rays and one of each was irradiated with 2 Gy of 18 MV X-rays. The remaining plate was not irradiated and used to calculate plating efficiency of A549. The nine plates were incubated for 10 days, stained with crystal violet, and colonies were counted.
In vitro studies were conducted with the A549 cell line, a human lung adenocarcinoma cultured from the tumor of a person by Giard in 1972. Clonogenic survival studies were done without irradiation or metal compound to measure plating efficiency. Cells were then exposed to 100 μM tungsten compound for 4 hours and seeded into 6 well plates. […] 4 identical plates of cells were then created, 2 containing 100 μM tungsten metal and 2 without metal.

[1] abbreviates: Example 2, 2 Gy of 6 MV X-rays, compound in media 1-2 hours prior to irradiation (100 μM sodium phosphotungstate hydrate, 1 mM sodium tungstate dihydrate, 4 μg/mL cisplatin).
[2] abbreviates: Example 2, 2 Gy of 18 MV X-rays, compound in media 1-2 hours prior to irradiation (100 μM sodium phosphotungstate hydrate, 1 mM sodium tungstate dihydrate, 4 μg/mL cisplatin).
Setting [3] is: Example 3, 2 Gy of 6 MV X-rays, incubated 2-4 hours prior to irradiation (100 μM tungsten, 4 μg/ml cisplatin, 12 μg/ml carboplatin).
Where [4] appears, read: Example 3, 2 Gy of 18 MV X-rays, incubated 2-4 hours prior to irradiation (100 μM tungsten, 4 μg/ml cisplatin, 12 μg/ml carboplatin).

Like-named read-outs stand apart in the source and are kept apart here.

On to sodium phosphotungstate hydrate, for which the “cell survival decreased using 18 MV photons compared to 6 MV photons, average of 3 experiments” value (from here on “cell survival decreased”) is on record as 48%. Also, the “survival after drug administration without irradiation” value (100 μM for 4 hours, no irradiation) is reported as “greater than 95%”. Also, the “cell killing, plates exposed to tungsten after irradiation” value (Example 2, 100 μM for one hour after irradiation, at either 6 or 18 MV) was “approximately 65%”. Further, under setting [1], the average colonies was found to be 68 colonies and the survival is given as 66%. Also, under setting [2], the average colonies is 35 colonies and the survival is listed as 34%. Moreover, the “18 MV result compared to 6 MV, in words” value (Example 2, 18 MV vs 6 MV, 2 Gy) is recorded as “double cell kill”. Besides, where the note is “2 Gy”, the “decreased clonogenic survival at 18 MV compared to 6 MV” value (shortened to “decreased clonogenic survival at 18 MV”) is listed as “approximately 50%” and the “more cell killing at 18 MV vs 6 MV” value is recorded as “approximately 50%”. Besides, under setting [3], the colonies/well is given as 68 colonies/well and the survival came to 66%. Besides, under setting [4], the colonies/well was determined as 35 colonies/well and the survival is 34%. The “more cell killing compared to 6 MV with or without metal and 18 MV without metal” value (Example 4, 100 μM, 2 Gy of 18 MV photons) is reported as “approximately 50%”.
Turning to `O.O.[Na+].[Na+].[O]=[W](=[O])([O-])[O-]` [sodium tungstate dihydrate], under setting [1], the average colonies amounted to 70 colonies and the survival stood at 68%. Moreover, under setting [2], the average colonies stood at 21 colonies and the survival is 20%. Moreover, where the note is “Example 2, 18 MV vs 6 MV, 2 Gy, 1 mM”, the “more cell killing compared to 6 MV” value is listed as “approximately 70%”. Moreover, the “decreased clonogenic survival at 18 MV” value (2 Gy) is about 70%.
`N.N.[Cl][Pt][Cl]` [cisplatin, reference compound]: the “cell survival decreased” value is recorded as “approximately 37%”. Under setting [1], the average colonies was 54 colonies and the survival came out at 13%. Further, under setting [2], the average colonies turned out to be 29 colonies and the survival came out at 7%. In addition, the “18 MV result compared to 6 MV, in words” value (Example 2, 18 MV vs 6 MV, 2 Gy) is on record as “half of that at 6 MV”. Under “2 Gy”, the “decreased clonogenic survival at 18 MV” value was “approximately 50%” and the “more cell killing at 18 MV vs 6 MV” value was 37%. In addition, under setting [3], the colonies/well was 54 colonies/well and the survival is on record as 13%. Also, under setting [4], the colonies/well stood at 29 colonies/well and the survival is recorded as 7%. Also, for the setting “Example 4”, the “increased cell killing at 18 MV compared to 6 MV, on average” value is listed as “approximately 37%”.
Turning to `N.N.O=C([O-])C1(C(=O)[O-])CCC1.[Pt+2]` [carboplatin, reference compound], the “cell survival decreased” value is “approximately 37%”. For the same compound, under setting [3], the colonies/well was 64 colonies/well and the survival turned out to be 16%. Also, under setting [4], the colonies/well is 40 colonies/well and the survival was 10%. Moreover, the “more cell killing at 18 MV vs 6 MV” value (2 Gy) was 37%. Also, the “increased cell killing at 18 MV compared to 6 MV, on average” value (Example 4) is listed as “approximately 37%”.
